Reference: paper PMC5097156, “Potent and selective chemical probe of hypoxic signalling downstream of HIF-α hydroxylation via VHL inhibition” (Nature Communications, 2016)

Columns and labels:
Test in all cases: biochemical
Design in all cases: Dundee MRC-PPU Express kinase screen, remaining kinase activity
Details in all cases: read-out: Mean % of remaining kinase activity (±sd)
BTK = BTK (Homo sapiens, UniProt Q06187)
CAMKKb = biological target: T1, CAMKKb (Homo sapiens, UniProt Q96RR4)
T1 construct: gene CAMKK2

CK1δ = biological target: T2, CK1δ (Homo sapiens, UniProt P48730)
T2 construct: gene CSNK1D

GSK3b = GSK3b (Homo sapiens, UniProt P49841)
IGF-1R = biological target: T3, IGF-1R (Homo sapiens, UniProt P08069)
T3 construct: gene IGF1R

MSK1 = biological target: T4, MSK1 (Homo sapiens, UniProt O75582)
T4 construct: gene RPS6KA5

NEK6 = NEK6 (Homo sapiens, UniProt Q9HC98)
PAK4 = PAK4 (Homo sapiens, UniProt O96013)
PDK1 = biological target: T5, PDK1 (Homo sapiens, UniProt O15530)
T5 construct: gene PDPK1

PKD1 = biological target: T6, PKD1 (Homo sapiens, UniProt Q15139)
T6 construct: gene PRKD1

PRK2 = biological target: T7, PRK2 (Homo sapiens, UniProt Q16513)
T7 construct: gene PKN2

RSK1 = biological target: T8, RSK1 (Homo sapiens, UniProt Q15418)
T8 construct: gene RPS6KA1

SYK = SYK (Homo sapiens, UniProt P43405)
TAK1 = biological target: T9, TAK1 (Homo sapiens, UniProt O43318)
T9 construct: gene MAP3K7
T9 sequence (O43318 whole entry): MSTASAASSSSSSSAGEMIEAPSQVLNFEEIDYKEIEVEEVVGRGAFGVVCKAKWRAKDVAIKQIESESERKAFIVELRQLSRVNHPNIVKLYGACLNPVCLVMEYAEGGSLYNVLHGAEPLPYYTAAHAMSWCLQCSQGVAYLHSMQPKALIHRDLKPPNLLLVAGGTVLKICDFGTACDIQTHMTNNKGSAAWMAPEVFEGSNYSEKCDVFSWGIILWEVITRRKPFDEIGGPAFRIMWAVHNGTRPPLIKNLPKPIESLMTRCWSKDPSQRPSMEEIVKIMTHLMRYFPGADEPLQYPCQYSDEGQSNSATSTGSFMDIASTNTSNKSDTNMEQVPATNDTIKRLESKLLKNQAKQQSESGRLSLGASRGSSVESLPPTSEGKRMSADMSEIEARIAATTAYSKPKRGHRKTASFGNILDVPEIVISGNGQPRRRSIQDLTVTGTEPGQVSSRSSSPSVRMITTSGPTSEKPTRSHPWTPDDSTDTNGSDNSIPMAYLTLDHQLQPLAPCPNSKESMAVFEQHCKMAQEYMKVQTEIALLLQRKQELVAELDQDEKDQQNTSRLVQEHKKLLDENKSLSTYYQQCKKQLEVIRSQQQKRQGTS

Chain of GSK3b (P49841 whole entry): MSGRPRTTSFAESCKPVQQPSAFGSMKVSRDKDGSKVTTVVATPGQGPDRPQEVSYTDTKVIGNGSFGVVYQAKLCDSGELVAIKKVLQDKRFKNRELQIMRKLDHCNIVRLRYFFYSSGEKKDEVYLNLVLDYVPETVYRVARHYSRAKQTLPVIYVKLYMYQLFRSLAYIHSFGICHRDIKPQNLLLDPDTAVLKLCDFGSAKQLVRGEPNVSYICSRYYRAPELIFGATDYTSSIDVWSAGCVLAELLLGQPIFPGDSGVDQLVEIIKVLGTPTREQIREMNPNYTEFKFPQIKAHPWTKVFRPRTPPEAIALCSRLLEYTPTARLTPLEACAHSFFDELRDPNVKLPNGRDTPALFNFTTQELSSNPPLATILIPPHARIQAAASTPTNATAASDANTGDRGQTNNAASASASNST
T5 sequence (O15530 whole entry): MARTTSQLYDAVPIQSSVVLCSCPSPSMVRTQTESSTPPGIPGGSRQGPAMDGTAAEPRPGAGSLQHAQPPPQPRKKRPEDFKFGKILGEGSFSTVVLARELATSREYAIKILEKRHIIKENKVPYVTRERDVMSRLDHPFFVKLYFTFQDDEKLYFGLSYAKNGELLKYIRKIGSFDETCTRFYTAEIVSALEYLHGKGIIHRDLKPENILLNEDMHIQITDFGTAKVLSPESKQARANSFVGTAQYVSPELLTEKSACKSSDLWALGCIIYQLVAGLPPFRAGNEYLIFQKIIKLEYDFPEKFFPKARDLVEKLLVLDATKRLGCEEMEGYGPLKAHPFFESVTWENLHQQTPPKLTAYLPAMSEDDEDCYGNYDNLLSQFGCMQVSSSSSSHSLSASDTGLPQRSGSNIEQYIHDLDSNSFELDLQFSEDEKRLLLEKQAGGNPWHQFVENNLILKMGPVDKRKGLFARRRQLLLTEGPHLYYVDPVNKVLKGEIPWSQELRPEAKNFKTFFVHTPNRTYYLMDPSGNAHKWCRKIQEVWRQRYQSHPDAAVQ
T7 sequence (Q16513 whole entry): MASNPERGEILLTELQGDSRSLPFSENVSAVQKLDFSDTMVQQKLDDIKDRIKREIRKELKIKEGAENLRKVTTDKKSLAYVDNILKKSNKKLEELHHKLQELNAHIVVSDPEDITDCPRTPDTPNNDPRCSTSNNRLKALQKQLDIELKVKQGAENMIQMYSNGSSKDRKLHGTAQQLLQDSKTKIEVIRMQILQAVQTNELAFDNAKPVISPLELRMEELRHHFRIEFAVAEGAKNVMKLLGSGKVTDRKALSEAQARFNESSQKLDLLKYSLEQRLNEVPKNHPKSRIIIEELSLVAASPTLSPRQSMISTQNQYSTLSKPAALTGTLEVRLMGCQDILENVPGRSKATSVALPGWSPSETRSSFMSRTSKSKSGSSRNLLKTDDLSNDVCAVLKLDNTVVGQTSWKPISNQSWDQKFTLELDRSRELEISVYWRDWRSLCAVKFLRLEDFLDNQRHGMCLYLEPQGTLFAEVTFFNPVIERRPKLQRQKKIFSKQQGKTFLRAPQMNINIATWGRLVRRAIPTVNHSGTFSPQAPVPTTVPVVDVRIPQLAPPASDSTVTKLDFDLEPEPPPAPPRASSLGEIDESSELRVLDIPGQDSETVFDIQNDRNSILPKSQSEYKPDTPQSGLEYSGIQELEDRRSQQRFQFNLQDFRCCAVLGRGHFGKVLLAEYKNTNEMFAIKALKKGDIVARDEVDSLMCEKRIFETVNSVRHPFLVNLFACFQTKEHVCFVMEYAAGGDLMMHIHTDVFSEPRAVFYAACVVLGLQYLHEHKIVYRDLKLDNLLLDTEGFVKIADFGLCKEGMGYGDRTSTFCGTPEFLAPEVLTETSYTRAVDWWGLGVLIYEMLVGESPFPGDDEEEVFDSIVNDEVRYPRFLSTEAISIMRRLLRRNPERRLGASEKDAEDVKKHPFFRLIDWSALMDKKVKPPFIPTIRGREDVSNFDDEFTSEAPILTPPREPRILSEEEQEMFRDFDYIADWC
T4 sequence (O75582 whole entry): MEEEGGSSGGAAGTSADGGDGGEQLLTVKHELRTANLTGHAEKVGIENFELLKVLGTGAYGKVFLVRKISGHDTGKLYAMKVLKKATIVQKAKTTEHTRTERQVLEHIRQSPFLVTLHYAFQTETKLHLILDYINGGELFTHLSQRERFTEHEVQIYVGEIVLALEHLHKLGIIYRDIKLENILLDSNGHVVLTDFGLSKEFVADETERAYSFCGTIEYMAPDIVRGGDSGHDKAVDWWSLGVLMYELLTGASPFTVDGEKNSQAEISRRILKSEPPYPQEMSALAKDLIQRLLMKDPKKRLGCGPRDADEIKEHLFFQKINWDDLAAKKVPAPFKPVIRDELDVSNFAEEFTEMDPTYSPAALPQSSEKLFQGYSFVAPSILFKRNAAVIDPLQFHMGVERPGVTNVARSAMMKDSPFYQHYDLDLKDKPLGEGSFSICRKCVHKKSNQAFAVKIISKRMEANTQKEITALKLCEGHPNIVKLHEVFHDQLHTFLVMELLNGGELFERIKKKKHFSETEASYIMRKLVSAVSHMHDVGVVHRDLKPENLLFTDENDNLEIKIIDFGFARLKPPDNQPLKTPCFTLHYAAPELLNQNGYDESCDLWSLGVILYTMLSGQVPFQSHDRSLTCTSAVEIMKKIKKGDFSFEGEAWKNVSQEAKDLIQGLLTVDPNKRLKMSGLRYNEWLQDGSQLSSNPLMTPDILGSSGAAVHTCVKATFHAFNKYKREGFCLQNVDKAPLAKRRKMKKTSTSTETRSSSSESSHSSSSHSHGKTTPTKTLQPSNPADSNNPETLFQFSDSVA
T2 sequence (P48730 whole entry): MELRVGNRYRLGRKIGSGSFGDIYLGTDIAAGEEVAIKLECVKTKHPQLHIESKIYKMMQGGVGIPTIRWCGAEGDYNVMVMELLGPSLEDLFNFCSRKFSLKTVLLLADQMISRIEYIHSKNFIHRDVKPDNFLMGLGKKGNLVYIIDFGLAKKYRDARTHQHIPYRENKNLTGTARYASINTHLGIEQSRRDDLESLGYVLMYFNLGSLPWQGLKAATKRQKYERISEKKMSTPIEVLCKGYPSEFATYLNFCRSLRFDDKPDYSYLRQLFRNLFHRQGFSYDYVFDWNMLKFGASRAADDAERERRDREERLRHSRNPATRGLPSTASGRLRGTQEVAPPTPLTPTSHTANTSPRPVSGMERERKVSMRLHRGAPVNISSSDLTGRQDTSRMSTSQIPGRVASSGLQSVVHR
T6 sequence (Q15139 whole entry): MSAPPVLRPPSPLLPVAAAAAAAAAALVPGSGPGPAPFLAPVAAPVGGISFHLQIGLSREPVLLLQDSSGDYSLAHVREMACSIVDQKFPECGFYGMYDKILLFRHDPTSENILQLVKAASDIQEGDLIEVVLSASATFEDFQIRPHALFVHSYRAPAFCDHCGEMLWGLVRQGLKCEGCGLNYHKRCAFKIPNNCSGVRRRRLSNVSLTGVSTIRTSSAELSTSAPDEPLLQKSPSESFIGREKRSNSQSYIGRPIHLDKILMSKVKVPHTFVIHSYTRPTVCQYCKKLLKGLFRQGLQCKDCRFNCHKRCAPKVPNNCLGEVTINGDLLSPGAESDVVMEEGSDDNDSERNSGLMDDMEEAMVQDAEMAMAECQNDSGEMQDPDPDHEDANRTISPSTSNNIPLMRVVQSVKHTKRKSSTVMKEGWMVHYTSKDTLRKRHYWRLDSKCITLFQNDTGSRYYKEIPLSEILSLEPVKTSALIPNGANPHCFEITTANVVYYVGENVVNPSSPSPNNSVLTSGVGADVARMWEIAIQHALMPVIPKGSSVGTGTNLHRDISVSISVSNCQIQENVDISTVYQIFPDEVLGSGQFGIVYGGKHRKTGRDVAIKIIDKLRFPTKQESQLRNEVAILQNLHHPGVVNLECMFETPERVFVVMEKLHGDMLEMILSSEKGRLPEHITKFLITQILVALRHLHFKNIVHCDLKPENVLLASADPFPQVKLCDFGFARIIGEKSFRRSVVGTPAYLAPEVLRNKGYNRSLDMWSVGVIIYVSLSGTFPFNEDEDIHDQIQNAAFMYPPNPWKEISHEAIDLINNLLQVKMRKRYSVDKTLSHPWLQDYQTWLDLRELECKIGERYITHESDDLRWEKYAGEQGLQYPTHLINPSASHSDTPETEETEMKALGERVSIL
Chain of NEK6 (Q9HC98 whole entry): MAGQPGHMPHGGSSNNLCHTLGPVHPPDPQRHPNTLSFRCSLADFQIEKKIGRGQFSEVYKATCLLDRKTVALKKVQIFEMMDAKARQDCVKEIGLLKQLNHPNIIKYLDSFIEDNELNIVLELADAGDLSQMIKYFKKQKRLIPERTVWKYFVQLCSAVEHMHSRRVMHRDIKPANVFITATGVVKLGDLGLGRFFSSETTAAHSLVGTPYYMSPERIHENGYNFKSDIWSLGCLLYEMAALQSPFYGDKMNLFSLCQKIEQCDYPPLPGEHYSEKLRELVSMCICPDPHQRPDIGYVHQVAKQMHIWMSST

## Cc1ncsc1-c1ccc(CNC(=O)[C@@H]2C[C@@H](O)CN2C(=O)[C@@H](NC(=O)C2(C#N)CC2)C(C)(C)C)cc1 [VH298]
BTK
  remaining activity at 50 µM: 102%
CAMKKb
  remaining activity at 50 µM: 101%
CK1δ
  remaining activity at 50 µM: 99%
GSK3b
  remaining activity at 50 µM: 107%
IGF-1R
  remaining activity at 50 µM: 110%
MSK1
  remaining activity at 50 µM: 87%
NEK6
  remaining activity at 50 µM: 106%
PAK4
  remaining activity at 50 µM: 97%
PDK1
  remaining activity at 50 µM: 110%
PKD1
  remaining activity at 50 µM: 108%
PRK2
  remaining activity at 50 µM: 110%
RSK1
  remaining activity at 50 µM: 94%
SYK
  remaining activity at 50 µM: 103%
TAK1
  remaining activity at 50 µM: 111%
